Here are results for eleven compounds from patent US5637570A, “Disubstituted and trisubstituted derivatives of 2,3:4,6-di-O-isopropylidene-α-L-xylo-2-hexulofuranosonic acid having anti-cancer, anti-inflammatory and anti-proliferative activity” (Chemora Pharmochem, priority 1995, dated 1997).

Broadly, the IC50 is the concentration that inhibits the measured activity by half. Lower therefore signals inhibition by little substance. As a reminder, the GI50 is the concentration that inhibits growth by half.

Read-outs that look alike come from different tables or passages of the source.

Type in all cases: cell-based
Assay [1] deals with T cells (splenic T cell proliferation, co-cultured spleen cells from two strains of mice). The assay can be described thus: Mixed lymphocyte response (MLR). Conditions: Mus musculus, Anti-inflammatory/Anti-proliferative Activity. An excerpt: i Mixed lymphocyte response (MLR).
(§1) The MLR assay measures the effects of a study compound on the activation and antigen presentation of T-lymphocytes, therefore determining immunomodulatory properties. The mouse spleen cell mitogen-induced blastogenesis and the BUD-8 human fibroblast proliferation assays measure the effects of the compounds of the present invention on cellular proliferation of cells involved in the pathogenesis of autoimmune diseases. These two assays are appropriate as screens to ascertain anti-inflammatory and/or autoimmune diseases.
The MLR is a classical assay used to measure T cell function by studying the proliferation response of T cells which are activated in vitro by genetically disparate stimulator cells. This is accomplished by co-culturing spleen cells from two different strains of mice. Splenic T cell proliferation occurs as a result of cellular activation signals generated by the ongoing cellular interactions.
(§2) The detailed experimental procedure for the above-mentioned assays is described in detail in U.S. Pat. Nos. 5,360,790 and 5,367,062 incorporated herein by reference.

The subject of assay [2] is mouse spleen cell (T-lymphocyte). The assay can be described thus: Concanavalin A (CON-A) assay, mouse spleen cell mitogen induced blastogenesis. The note with it: Anti-inflammatory/Anti-proliferative Activity.
Description: iii Concanavalin A assay (the mouse spleen cell mitogen induced blastogenesis).
as §1
It is known that the induction and maintenance of most inflammatory diseases are typically due to the unrestricted activity of T-lymphocytes. Therefore, it is advantageous to identify compounds which are modulators of T-lymphocyte activity for eventual use in the regulation of inflammatory diseases, including acquired immune deficiency syndrome, psoriasis, systemic lupus, erythromatosus, and rheumatoid arthritis.
as §2

The subject of assay [3] is BUD-8 human fibroblast. As to the kind of experiment: BUD-8 human cell line fibroblast proliferation assay (FIB.). Conditions: Anti-inflammatory/Anti-proliferative Activity.
Description: ii BUD-8 human cell line fibroblast proliferation assay.
as §1
The skin cell fibroblast line, BUD-8, was originally derived from the normal skin of a person and can now be obtained from the American Type Culture Collection, Rockville, Md.
as §2

The test system of assay [4] is human tumor cell lines (approximately 60). As to the kind of experiment: NCI in vitro human tumor cell line screen (SRB), mean graph midpoints over all cell lines. Conditions: for CC50 / GI50 / IC (TGI): Homo sapiens, average of all cell lines, 48 h; for CC50: 50% cell death (-50% growth), read-out: log10 LC50 mean graph midpoint (converted); for IC (TGI): total cell growth inhibition (0% growth), read-out: log10 TGI mean graph midpoint (converted).
Description: In performing in vitro human tumor cell line assay, a total of approximately 60 human tumor cell lines derived from ten cancer types (leukemia, non-small cell lung cancer, small cell lung cancer, colon cancer, CNS cancer, melanoma, ovarian cancer, renal cancer, breast cancer and prostate cancer) were used in this assay. Compounds were tested at different concentrations against every cell line. All lines are inoculated into a series of standard 96-well microtiter plates on day 0, in the majority of cases at 20,000 cells/well, and then pre-incubated in the absence of testing agent for 24 hours. A testing agent was then added in five 10-fold dilutions and incubated for a further period of 48 hours. Following this, the cells are fixed in situ, washed, and dried. Sulforhodamine B (SRB, protein binding dye) is added, followed by further washing and drying of the stained adherent cell mass. The bound stain is solubilized and measured spectrophotometrically on an automatic plate reader.
For each compound, dose response curves for each cell line were measured with five different drug concentrations, and the concentration causing 50% cell growth inhibition (GI50), total cell growth inhibition (TGI, 0% growth), and 50% cell death (LC50, -50% growth) compared with the control was calculated. […] In these graphs, the mean logarithmic value of GI50 in all cell lines for each tested compound is used as the midpoint of that bar graph.

The mark [5] stands for this setting: 50% cell growth inhibition, read-out: GI50 (average).
Where [6] appears, read: log10 of molar concentration, read-out: log10 I50 (log10 GI50 mean graph midpoint) (converted).

For the compound `CCCCCCCCCCCCOC[C@@]12O[C@@H](CNCCN3CCOCC3)[C@@H](O)[C@@H]1OC(C)(C)O2` [If, 2,3-O-Isopropylidene-6-deoxy-6-aminoethylmorpholinyl-1-O-dodecyl-α-L-xylo-2-hexulofuranose], the IC50 in assay [1], in assay [2] and in assay [3] was less than 1 µM throughout. For the same compound, the CC50 in assay [4] was 11 µM. Further, the results for the GI50 in assay [4] (setting [5]) and in assay [4] (setting [6]) were 4.68 µM and 2.34 µM, respectively. Moreover, the IC (TGI) in assay [4] is 5.13 µM.
In the case of `CCCCCCCCCCCCOC[C@@]12O[C@@H](CN3CCCCCC3)[C@@H](OCCN3CCOCC3)[C@@H]1OC(C)(C)O2` [Iv, 2,3-O-Isopropylidene-6-deoxy-1-O-dodecyl-4-O-ethylmorpholinyl-6-hexamethyleneimino-α-L-xylo-2-hexulofuranose], the 50% inhibitory concentration (IC50) in assay [1], in assay [2] and in assay [3] was less than 1 µM throughout. Also, in assay [4], the CC50 was 44.7 µM. For the same compound, the GI50 in assay [4] (setting [5]) was 3.2 µM; in assay [4] (setting [6]), 1.82 µM. The IC (TGI) in assay [4] is 11.5 µM.
Consider `CCCCCCCCCCCCOC[C@@]12O[C@@H](CN3CCCCCC3)[C@@H](O)[C@@H]1OC(C)(C)O2` [Id, 2,3-O-Isopropylidene-6-deoxy-6-(1-hexamethyleneimino)-1-O-dodecyl-α-L-xylo-2-hexulofuranose], for which the values for the half-inhibitory concentration (IC50) in assay [1], in assay [2] and in assay [3] were less than 1 µM, less than 3 µM and less than 3 µM, respectively. In assay [4], the CC50 is 10.7 µM. Besides, the figures for the concentration for 50% growth inhibition (GI50) in assay [4] (setting [5]) and in assay [4] (setting [6]) were 3.87 µM and 1.82 µM, respectively. Moreover, the IC (TGI) in assay [4] is 4.57 µM.
On to `CCCCCCCCCCCCOC[C@@]12O[C@@H](C)[C@@H](OCCN3CCOCC3)[C@@H]1OC(C)(C)O2` [In, 2,3-O-Isopropylidene-6-deoxy-1-O-dodecyl-4-O-ethylmorpholinyl-α-L-xylo-2-hexulofuranose], for which the IC50 in assay [1] was determined as 3.8 µM; in assay [2], 10.5 µM; in assay [3], 12.9 µM. In addition, the CC50 in assay [4] is 91.2 µM. The 50% growth inhibitory concentration (GI50) in assay [4] (setting [5]) was 74.9 µM; in assay [4] (setting [6]), 36.3 µM. For the same compound, in assay [4], the IC (TGI) was 72.4 µM.
For the compound `CCCCCCCCCCCCOC[C@@]12O[C@@H](CN3CCCCCC3)[C@@H](OCCCN3CCCCC3)[C@@H]1OC(C)(C)O2` [Iu, 2,3-O-Isopropylidene-6-deoxy-1-O-dodecyl-4-O-propylpiperidinyl-6-hexamethyleneimino-α-L-xylo-2-hexulofuranose], the IC50 in assay [1], in assay [2] and in assay [3] was less than 1 µM each time. In addition, in assay [4], the CC50 was 28.8 µM. In addition, the results for the concentration for 50% growth inhibition (GI50) in assay [4] (setting [5]) and in assay [4] (setting [6]) were 0.86 µM and 0.501 µM, respectively. The IC (TGI) in assay [4] was 3.72 µM.
Regarding `CCCCCCCCCCCCOC[C@@]12O[C@@H](CN3CCCCCC3)[C@@H](OCCCc3ccccc3)[C@@H]1OC(C)(C)O2` [Iw, 2,3-O-Isopropylidene-6-deoxy-1-O-dodecyl-4-O-phenylpropyl-6-hexamethyleneimino-α-L-xylo-2-hexulofuranose], the IC50 in assay [1], in assay [2] and in assay [3] was less than 1 µM throughout. In addition, the CC50 in assay [4] was 16.6 µM. Further, the figures for the GI50 in assay [4] (setting [5]) and in assay [4] (setting [6]) were 4.18 µM and 2.45 µM, respectively. For the same compound, the IC (TGI) in assay [4] was 10 µM.
As for `CCCCCCCCCCCCOC[C@@]12O[C@@H](CN3CCCCCC3)[C@@H](OCCN3CCCCC3)[C@@H]1OC(C)(C)O2` [It, 2,3-O-Isopropylidene-6-deoxy-1-O-dodecyl-4-O-ethylpiperidinyl-6-hexamethyleneimino-α-L-xylo-2-hexulofuranose], the IC50 in assay [1], in assay [2] and in assay [3] was less than 1 µM throughout. Moreover, the CC50 in assay [4] was 36.3 µM. The figures for the GI50 in assay [4] (setting [5]) and in assay [4] (setting [6]) were 2.38 µM and 1.35 µM, respectively. Further, the IC (TGI) in assay [4] is 7.76 µM.
Turning to `CCCCCCCCCCCCOC[C@@]12O[C@@H](CN3CCCCCC3)[C@@H](OCCN3CCCC3)[C@@H]1OC(C)(C)O2` [Ir, 2,3-O-Isopropylidene-6-deoxy-1-O-dodecyl-4-O-ethylpyrrolidinyl-6-hexamethyleneimino-α-L-xylo-2-hexulofuranose], the half-maximal inhibitory concentration (IC50) in assay [1], in assay [2] and in assay [3] was less than 1 µM throughout. In assay [4], the CC50 is 21.4 µM. The GI50 was 3.22 µM in assay [4] (setting [5]) and 1.78 µM in assay [4] (setting [6]). Moreover, the IC (TGI) in assay [4] was 8.13 µM.
On to `CCCCCCCCCCCCOC[C@@]12O[C@@H](CN3CCCC3)[C@@H](O)[C@@H]1OC(C)(C)O2` [Ia, 2,3-O-Isopropylidene-6-deoxy-6-(1-pyrrolidinyl)-1-O-dodecyl-α-L-xylo-2-hexulofuranose], for which the concentration for half-maximal inhibition (IC50) in assay [1] is less than 1 µM; in assay [2], less than 1 µM; in assay [3], less than 3 µM. For the same compound, in assay [4], the CC50 is 13.2 µM. Moreover, the concentration for 50% growth inhibition (GI50) is 4.21 µM in assay [4] (setting [5]) and 0.204 µM in assay [4] (setting [6]). Further, the IC (TGI) in assay [4] is 4.37 µM.
As for `CCCCCCCCCCCCOC[C@@]12O[C@@H](CNCCN3CCCCC3)[C@@H](O)[C@@H]1OC(C)(C)O2` [Ig, 2,3-O-Isopropylidene-6-deoxy-6-aminoethylpiperidinyl-1-O-dodecyl-α-L-xylo-2-hexulofuranose], the figures for the half-inhibitory concentration (IC50) in assay [1], in assay [2] and in assay [3] were less than 1 µM, less than 3 µM and less than 3 µM, respectively. In assay [4], the CC50 was 20 µM. Also, the GI50 was 6.8 µM in assay [4] (setting [5]) and 3.39 µM in assay [4] (setting [6]). Moreover, the IC (TGI) in assay [4] is 7.76 µM.
On to `CCCCCCCCCCCCOC[C@@]12O[C@@H](C)[C@@H](OCCN3CCCC3)[C@@H]1OC(C)(C)O2` [Il, 2,3-O-Isopropylidene-6-deoxy-1-O-dodecyl-4-O-ethylpyrrolidinyl-α-L-xylo-2-hexulofuranose], for which the IC50 in assay [1], in assay [2] and in assay [3] was less than 1 µM in each case. In addition, the CC50 in assay [4] is 28.8 µM. The concentration for 50% growth inhibition (GI50) is 8.68 µM in assay [4] (setting [5]) and 4.07 µM in assay [4] (setting [6]). Besides, the IC (TGI) in assay [4] was 10.5 µM. Further, the “in vitro activity in words” value in assay [4] (various in vitro cell lines, IC50, average GI50, mean graph pattern) was “significant activity”.
